Test results from ChEMBL document CHEMBL1126438, “DNA alkylation properties of the duocarmycins: (+)-duocarmycin A, epi-(+)-duocarmycin A, ent-()-duocarmycin A and epi,ent-()-duocarmycin A” (Bioorg Med Chem Lett, 1992).
Values after ≈ are worked out from the molar mass of the structure shown.

What was measured:
B16 = assay: In vitro evaluation for cytotoxicity against B16 melanoma.; assay type: functional, cell-based; settings: Mus musculus
P388 = assay: In vitro evaluation for cytotoxicity against P388 murine leukemia cell line; assay type: functional, cell-based, Mus musculus
L1210 = assay: In vitro evaluation for cytotoxicity against L1210 cell line; assay type: functional, cell-based; settings: Mus musculus
[1] = Mus musculus, P388, read-out: IC50

SMILES | IC50 (B16) | IC50 (P388; p388) | IC50 (L1210) | IC50 (P388; [1])
COC(=O)[C@]1(C)N=C2C(=O)C=C3N(C(=O)c4cc5cc(OC)c(OC)c(OC)c5[nH]4)C[C@H]4C[C@@]34C2=C1O | 0.2 ng/mL (≈ 0.394 nM) | 0.002 ng/mL (≈ 0.00394 nM) | 0.1 ng/mL (≈ 0.197 nM) | –
COC(=O)[C@@]1(C)N=C2C(=O)C=C3N(C(=O)c4cc5cc(OC)c(OC)c(OC)c5[nH]4)C[C@H]4C[C@@]34C2=C1O | 0.8 ng/mL (≈ 1.58 nM) | – | 0.8 ng/mL (≈ 1.58 nM) | 0.007 ng/mL (≈ 0.0138 nM)
COC(=O)[C@]1(C)N=C2C(=O)C=C3N(C(=O)c4cc5cc(OC)c(OC)c(OC)c5[nH]4)C[C@@H]4C[C@]34C2=C1O | > 3 ng/mL | – | > 12 ng/mL | ≥ 0.3 ng/mL
COC(=O)[C@@]1(C)N=C2C(=O)C=C3N(C(=O)c4cc5cc(OC)c(OC)c(OC)c5[nH]4)C[C@@H]4C[C@]34C2=C1O | > 3 ng/mL | – | > 11 ng/mL | ≥ 0.3 ng/mL
